The NIST ThermoML archive (doi:10.1016/j.fluid.2018.10.006)
Values joined by “and” are separate entries in the source; they are usually repeats but may differ in a detail not shown here. Identical values can stand only once.

Settings: Fluid (supercritical or subcritical phases), Coaxial cylinder method

CCCCCC [hexane]
thermal conductivity
Settings	511.79 K	513.09 K
2634 kPa	–	0.0455 W/m/K
2645 kPa	–	0.04562 W/m/K
2653 kPa	–	0.04575 W/m/K
2654 kPa	–	0.04575 W/m/K
2655 kPa	–	0.04575 W/m/K
2661 kPa	–	0.04587 W/m/K
2722 kPa	–	0.04549 W/m/K
2740 kPa	–	0.04678 W/m/K
2760 kPa	–	0.04705 W/m/K
2763 kPa	–	0.04704 W/m/K
2839 kPa	–	0.04831 W/m/K
2849 kPa	–	0.04859 W/m/K
2879 kPa	–	0.04916 W/m/K
2894 kPa	–	0.04931 W/m/K
2909 kPa	–	0.0496 W/m/K
2931 kPa	–	0.05008 W/m/K
2953 kPa	–	0.05053 W/m/K
2983 kPa	–	0.05146 W/m/K
3010 kPa	–	0.05237 W/m/K
3034 kPa	–	0.05319 W/m/K
3054 kPa	–	0.05386 W/m/K
3098 kPa	–	0.05597 W/m/K
3114 kPa	–	0.05684 W/m/K
3152 kPa	–	0.05939 W/m/K
3163 kPa	–	0.06043 W/m/K
3169 kPa	–	0.06085 W/m/K
3176 kPa	–	0.06151 W/m/K
3180 kPa	–	0.06217 W/m/K
3184 kPa	–	0.06262 W/m/K
3186 kPa	–	0.06285 W/m/K
3193 kPa	–	0.06308 W/m/K
3195 kPa	–	0.06308 W/m/K
3200 kPa	–	0.06331 W/m/K
3205 kPa	–	0.06425 W/m/K
3207 kPa	–	0.06497 W/m/K
3212 kPa	–	0.06596 W/m/K
3216 kPa	–	0.06647 W/m/K
3231 kPa	–	0.06898 W/m/K
3232 kPa	–	0.06917 W/m/K
3234 kPa	–	0.06942 W/m/K
3235 kPa	–	0.06951 W/m/K
3236 kPa	–	0.06967 W/m/K
3237 kPa	–	0.06987 W/m/K
3238 kPa	–	0.07001 W/m/K
3240 kPa	–	0.07024 W/m/K
3242 kPa	–	0.07052 W/m/K
3243 kPa	–	0.07067 W/m/K
3244 kPa	–	0.07081 W/m/K
3246 kPa	–	0.0711 W/m/K
3247 kPa	–	0.07125 W/m/K
3248 kPa	–	0.07133 W/m/K
3249 kPa	–	0.07154 W/m/K
3251 kPa	–	0.07169 W/m/K
3252 kPa	–	0.07184 W/m/K
3253 kPa	–	0.07198 W/m/K
3254 kPa	–	0.07213 W/m/K
3255 kPa	–	0.07228 W/m/K
3256 kPa	–	0.07243 W/m/K
3257 kPa	–	0.07258 W/m/K
3258 kPa	–	0.07265 W/m/K
3260 kPa	–	0.07284 W/m/K
3261 kPa	–	0.07295 W/m/K and 0.073 W/m/K
3262 kPa	–	0.07311 W/m/K
3263 kPa	–	0.07319 W/m/K
3265 kPa	–	0.07338 W/m/K
3266 kPa	–	0.07346 W/m/K
3267 kPa	–	0.07354 W/m/K
3274 kPa	–	0.07412 W/m/K
3277 kPa	–	0.07428 W/m/K
3279 kPa	–	0.07428 W/m/K
3280 kPa	–	0.07438 W/m/K
3282 kPa	–	0.07445 W/m/K
3284 kPa	–	0.07451 W/m/K
3287 kPa	–	0.07452 W/m/K
3288 kPa	–	0.07459 W/m/K
3290 kPa	–	0.07463 W/m/K
3292 kPa	–	0.07463 W/m/K
3295 kPa	–	0.07469 W/m/K
3298 kPa	–	0.07463 W/m/K
3303 kPa	–	0.07463 W/m/K
3306 kPa	–	0.07437 W/m/K
3310 kPa	–	0.07332 W/m/K
3312 kPa	–	0.07332 W/m/K
3313 kPa	–	0.07228 W/m/K
3318 kPa	–	0.07228 W/m/K
3319 kPa	–	0.07228 W/m/K
3322 kPa	–	0.07228 W/m/K
3326 kPa	–	0.07228 W/m/K
3330 kPa	–	0.07228 W/m/K
3331 kPa	–	0.07228 W/m/K
3332 kPa	–	0.07228 W/m/K
3334 kPa	–	0.07228 W/m/K
3336 kPa	–	0.07228 W/m/K
3340 kPa	–	0.07228 W/m/K
3343 kPa	–	0.07197 W/m/K
3345 kPa	–	0.07087 W/m/K
3346 kPa	–	0.07087 W/m/K
3347 kPa	–	0.07087 W/m/K
3350 kPa	–	0.07087 W/m/K
3360 kPa	–	0.07087 W/m/K
3370 kPa	–	0.07087 W/m/K
3380 kPa	–	0.07087 W/m/K
3390 kPa	–	0.07087 W/m/K
3400 kPa	–	0.06942 W/m/K
3420 kPa	–	0.06942 W/m/K
3430 kPa	–	0.06942 W/m/K
3450 kPa	–	0.06824 W/m/K and 0.06843 W/m/K
3500 kPa	–	0.06824 W/m/K
3600 kPa	–	0.06824 W/m/K
3700 kPa	–	0.06824 W/m/K
3800 kPa	–	0.06824 W/m/K
3900 kPa	–	0.06824 W/m/K
4000 kPa	–	0.07056 W/m/K
4100 kPa	–	0.0708 W/m/K and 0.07056 W/m/K
4180 kPa	0.07039 W/m/K	–
4190 kPa	0.07026 W/m/K	–
4200 kPa	0.07026 W/m/K	0.07086 W/m/K
4300 kPa	–	0.07086 W/m/K
4400 kPa	0.07099 W/m/K	–
4600 kPa	0.07159 W/m/K	0.07116 W/m/K
4700 kPa	–	0.07125 W/m/K
4800 kPa	0.07179 W/m/K	0.07144 W/m/K
4900 kPa	–	0.07165 W/m/K
5000 kPa	–	0.07187 W/m/K
5100 kPa	–	0.07209 W/m/K
5200 kPa	–	0.07225 W/m/K
5300 kPa	–	0.0725 W/m/K
5400 kPa	0.07303 W/m/K	0.07269 W/m/K
5500 kPa	–	0.07288 W/m/K
5600 kPa	–	0.07304 W/m/K
5700 kPa	–	0.07323 W/m/K
5800 kPa	–	0.07339 W/m/K
5900 kPa	–	0.07359 W/m/K
6000 kPa	0.074 W/m/K	0.07375 W/m/K
6100 kPa	–	0.07391 W/m/K
6200 kPa	–	0.07408 W/m/K
6300 kPa	–	0.07424 W/m/K
6400 kPa	–	0.07438 W/m/K
6500 kPa	–	0.07454 W/m/K
6600 kPa	–	0.07471 W/m/K
6700 kPa	–	0.07488 W/m/K
6800 kPa	–	0.07501 W/m/K
6900 kPa	–	0.07515 W/m/K
7000 kPa	0.07567 W/m/K	0.07528 W/m/K
7100 kPa	–	0.07542 W/m/K
7150 kPa	–	0.07549 W/m/K
7200 kPa	–	0.07556 W/m/K
7211 kPa	–	0.07556 W/m/K
7292 kPa	–	0.07569 W/m/K
7496 kPa	–	0.07597 W/m/K
7501 kPa	–	0.07597 W/m/K
7517 kPa	–	0.07597 W/m/K
7533 kPa	–	0.07599 W/m/K
7800 kPa	–	0.07638 W/m/K
8000 kPa	0.07705 W/m/K	–
8100 kPa	–	0.07676 W/m/K
8200 kPa	–	0.07687 W/m/K
9000 kPa	0.07812 W/m/K	–
10000 kPa	0.07922 W/m/K	–
